Test [1] has as its target T1, Histone Deacetylase 4 (HDAC4) catalytic domain (Homo sapiens, UniProt P56524).
T1 construct: 6x histidine tag (C); purchased BioFocus
The test is described as follows: Inhibition of HDAC4 catalytic domain enzymatic activity, fluorogenic substrate Boc-Lys(Tfa)-AMC. It counts as biochemical. From the text:
The potency of compounds is quantified by measuring the Histone Deacetylase 4 (HDAC4) catalytic domain enzymatic activity using the fluorogenic substrate, Boc-Lys(Tfa)-AMC. The substrate is deacetylated to Boc-Lys-AMC by HDAC4. Cleavage by trypsin results in the release of the fluorophore AMC from the deacetylated substrate. The fluorescence of the sample is directly related to the histone deacetylase activity in the sample.
Serial dilutions of the compounds being tested and control reference compound (1-(5-(3-((4-(1,3,4-oxadiazol-2-yl)phenoxy)methyl)-1,2,4-oxadiazol-5-yl)thiophen-2-yl)-2,2,2-trifluoroethanone) are made by first resuspending the lyophilized compound to a final concentration of 10 mM in 100% dimethyl sulfoxide (DMSO). Stocks of 60 μL aliquots of the 10 mM compound in DMSO are prepared and stored at −20° C. From one stock aliquot of each compound to be tested and the reference compound, a 16-point serial dilution is prepared according to Table 1 using a 125 μL 16-channel Matrix multi-channel pipette (Matrix Technologies Ltd).
2 μL (200×) of each diluted solution and each control (full activity: 100% DMSO alone or full inhibition 1 mM) is stamped into V-bottomed polypropylene 384-well compound plates using either the Bravo (384-well head from Agilent) or 12.5 μL 16-channel Matrix multi-channel pipette (Matrix Technologies Ltd).
A working solution of enzyme is prepared from a 500 μg/mL stock aliquot of HDAC4 catalytic domain (thawed on ice) diluted to 0.2 μg/mL with assay buffer (50 mM Tris-HCl, 137 mM NaCl, 2.7 mM KCl, and 1 mM MgCl2 at pH 8 and equilibrated to room temperature) just prior to the addition of the enzyme to the assay.
5× (50 μM) substrate is prepared just prior to the addition to the assay. A 1 mM substrate stock is made by diluting a 100 mM Boc-Lys(Tfa)-AMC in DMSO solution 1:100 by adding it drop-wise to assay buffer (equilibrated to room temperature) while vortexing at slow speed to prevent precipitation. The 5× substrate is prepared by diluting the 1 mM substrate solution 1:20 by adding it drop-wise to assay buffer (equilibrated to room temperature) while vortexing at slow speed to prevent precipitation.
3× (30 μM) Developer/Stop Solution is prepared just prior to addition to the plate by diluting a stock solution of 10 mM reference compound 1:333 in 25 mg/mL trypsin (PAA Laboratories Ltd.) equilibrated to room temperature.
5 μL of each solution of 1:20 diluted compound from above is transferred to a clear bottomed, black, 384-well assay plate using the Bravo or the Janus (384-well MDT head from Perkin Elmer). Using a 16-channel Matrix multi-channel pipette, 35 μL of the working solution of HDAC4 catalytic domain enzyme (0.2 μg/mL in assay buffer) is transferred to the assay plate. The assay is then started by adding 10 μL of 5× (50 μM) substrate to the assay plates using either the Bravo, Janus or 16-channel Matrix multi-channel pipette. The assay plate is then shaken for two minutes on an orbital shaker at 900 rpm (rotations per minute). Next the plate is incubated for 15 minutes at 37° C. The reaction is stopped by adding 25 μL of 3× (30 μM) developer/stop solution to the assay plates using either the Bravo, Janus or a 16-channel Matrix multi-channel pipette. Assay plates are then shaken for 5 minutes on an orbital shaker at 1200 rpm. Next, the assay plates are incubated at 37° C. for 1 hour in a tissue culture incubator. Finally, the fluorescence is measured (Excitation: 355 nm, Emission: 460 nm) using PerkinElmer EnVision in top read mode.

For test [2], the system named is cellular histone deacetylase enzymatic activity in Jurkat E6-1 cells. The test is described as follows: Inhibition of cellular HDAC activity in Jurkat E6-1 cells, fluorogenic substrate Boc-Lys(Tfa)-AMC. The test is classed as cell-based. The following applies: Homo sapiens. On the procedure:
The potency of the compounds is quantified by measuring the cellular histone deacetylase enzymatic activity using the fluorogenic substrate, Boc-Lys(Tfa)-AMC. After penetration in Jurkat E6-1 cells, the substrate is deacetylated to Boc-Lys-AMC. After cell lysis and cleavage by trypsin, the fluorophore AMC is released from the deacetylated substrate only. The fluorescence of the sample is directly related to the histone deacetylase activity in the sample.
Jurkat E6.1 cells are cultured according to standard cell culture protocols in Jurkat E6.1 Growth Media (RPMI without phenol red, 10% FBS, 10 mM HEPES, and 1 mM Sodium Pyruvate). Jurkat E6.1 cells are counted using a Coulter Counter and resuspended in Jurkat E6.1 growth media at a concentration of 75,000 cells/35 μL. 35 μL or 75,000 cells is seeded into Greiner microtitre assay plates. The plates are then incubated at 37° C. and 5% CO2 while other assay components are being prepared.
Serial dilutions of the compounds being tested and control reference compound (1-(5-(3-((4-(1,3,4-oxadiazol-2-yl)phenoxy)methyl)-1,2,4-oxadiazol-5-yl)thiophen-2-yl)-2,2,2-trifluoroethanone) are made by first resuspending the lyophilized compound to a final concentration of 10 mM in 100% DMSO. Stocks of 70 μL aliquots of the 10 mM compound in DMSO are prepared and stored at −20° C. From one stock aliquot of each compound to be tested and the reference compound, a 16-point serial dilution is prepared according to Table 1 using a 125 μL 16-channel Matrix multi-channel pipette.
2 μL (200×) of each diluted solution and each control (full activity: 100% DMSO alone or full inhibition 1 mM) is stamped into V-bottom polypropylene 384-well compound plates using either the Bravo, Janus, or 12.5 μL 16-channel Matrix multi-channel pipette. Each well with the 200× compound solution is diluted 1:20 by the addition of 38 μL Jurkat assay buffer+DMSO (9.5% DMSO, RPMI without phenol red, 0.09% FBS, 9 mM Hepes, and 0.9 mM Sodium Pyruvate equilibrated to room temperature)
5× (500 μM) substrate is prepared just prior to the addition to the assay. The 5× substrate is prepared by diluting a 100 mM Boc-Lys(Tfa)-AMC in DMSO solution 1:200 by adding it drop-wise to Jurkat assay medium (RPMI without phenol red, 0.1% FBS, 10 mM Hepes, and 1 mM Sodium Pyruvate equilibrated to 37° C.) while vortexing at slow speed to prevent precipitation.
10 mL of 3× lysis buffer is prepared with 8.8 ml of 3× stock lysis buffer (50 mM Tris-HCl, pH 8.0, 137 mM NaCl, 2.7 mM KCl, 1 mM MgCl2, 1% Nonidet P40 Substitute equilibrated to room temperature) and 1.2 mL of 3 mg/mL Trypsin equilibrated to room temperature.
5 μL of each solution of 1:20 diluted compound from above is transferred to the Greiner microtitre assay plates with 75,000 cells/well using the Bravo. Cells are then incubated for 2 hours at 37° C. and 5% CO2. The assay is then started by adding 10 μL of 5× (500 μM) substrate to the assay plate using either the Bravo or 16-channel Matrix multi-channel pipette. The cells are then incubated for 3 hours at 37° C. and 5% CO2. Next, 25 μL of 3× lysis buffer is added to each well using either the 125 μL 16 channel pipette or the Bravo. The assay plate is then incubated overnight (15-16 hours) at 37° C. and 5% CO2. The following day, the plates are shaken on an orbital shaker for 1 minute at 900 rpm. Finally the top read fluorescence (Excitation: 355 nm, Emission: 460 nm) is measured using PerkinElmer EnVision.

T1 sequence (P56524 648-1032): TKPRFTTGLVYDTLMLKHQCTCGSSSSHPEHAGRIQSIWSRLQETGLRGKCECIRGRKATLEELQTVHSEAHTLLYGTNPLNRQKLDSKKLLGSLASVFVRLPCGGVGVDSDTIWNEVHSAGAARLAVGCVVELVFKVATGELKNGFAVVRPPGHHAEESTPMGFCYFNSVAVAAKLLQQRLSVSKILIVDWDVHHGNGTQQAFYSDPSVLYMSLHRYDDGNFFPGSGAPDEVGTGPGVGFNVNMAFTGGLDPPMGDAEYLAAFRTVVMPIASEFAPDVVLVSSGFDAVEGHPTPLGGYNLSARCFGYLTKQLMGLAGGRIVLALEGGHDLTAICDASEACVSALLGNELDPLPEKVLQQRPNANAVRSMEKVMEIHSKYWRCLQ

One may read the IC50 as the point on the concentration scale where inhibition reaches its midpoint. The low end stands for greater potency, the high end for weaker potency. On to `Cc1ccccc1-c1cc(C(=O)NO)n(-c2ccccc2)n1` [Example 3, N-Hydroxy-3-(2-methylphenyl)-1-phenyl-1H-pyrazole-5-carboxamide], for which the results for the IC50 in test [1] and in test [2] were 0.94 µM and 7.3 µM, respectively.

For `O=C(NO)c1cc(N2CCCC2)nn1-c1ccccc1` [Example 14, N-Hydroxy-1-phenyl-3-pyrrolidin-1-yl-1H-pyrazole-5-carboxamide], the half-inhibitory concentration (IC50) in test [1] is 9.9 µM; in test [2] it was 46.2 µM.

With `Cc1ncccc1-c1cc(C(=O)NO)n(-c2ccccc2)n1` [Example 9, N-Hydroxy-3-(2-methyl-3-pyridyl)-1-phenyl-1H-pyrazole-5-carboxamide], the values for the IC50 in test [1] and in test [2] were 1.4 µM and 6.9 µM, respectively.

In the case of `O=C(NO)c1cc(-c2cccc3ccsc23)nn1-c1ccccc1` [Example 2, N-Hydroxy-3-(benzothiophen-7-yl)-1-phenyl-1H-pyrazole-5-carboxamide], the half-inhibitory concentration (IC50) in test [1] amounted to 0.12 µM; in test [2], 2.72 µM.

On to `O=C(NO)c1cc(-c2cncc(Cl)c2)nn1-c1ccccc1` [Example 8], for which the figures for the concentration for half-maximal inhibition (IC50) in test [1] and in test [2] were 4.9 µM and 41.6 µM, respectively.

For `O=C(NO)c1cc(Cc2ccccc2)nn1-c1ccccc1` [Example 4, N-Hydroxy-3-benzyl-1-phenyl-1H-pyrazole-5-carboxamide], the IC50 worked out at 0.96 µM in test [1] and 10.2 µM in test [2].

For the compound `O=C(NO)c1cc(-c2ccccc2Cl)cn1-c1ccccc1` [Example 16, N-Hydroxy-4-(2-chlorophenyl)-1-phenyl-pyrrole-2-carboxamide], the 50% inhibitory concentration (IC50) came out at 0.71 µM in test [1] and 6.17 µM in test [2].

Regarding `CN1CC=C(c2cc(C(=O)NO)n(-c3ccccc3)n2)CC1` [Example 11, N-Hydroxy-3-(1-methyl-3,6-dihydro-2H-pyridin-4-yl)-1-phenyl-1H-pyrazole-5-carboxamide], the IC50 in test [1] stood at 0.24 µM; in test [2], 4.07 µM.

Regarding `Cc1ccccc1-c1cc(C(=O)NO)n(-c2ccccc2C)n1` [Example 12, N-Hydroxy-1,3-bis(2-methylphenyl)-1H-pyrazole-5-carboxamide], the IC50 is 2.4 µM in test [1] and 16 µM in test [2].

Turning to `Cc1ccccc1-c1cc(C(=O)NO)n(-c2ccccc2)c1` [Example 15, N-Hydroxy-4-(2-methylphenyl)-1-phenyl-pyrrole-2-carboxamide], the 50% inhibitory concentration (IC50) is 1.4 µM in test [1] and 13.8 µM in test [2].

For the compound `O=C(NO)c1cc(-c2ccccc2)nn1-c1ccccc1` [Example 1, N-Hydroxy-1,3-diphenylpyrazole-5-carboxamide], the IC50 in test [1] stood at 10.3 µM; in test [2], 24.2 µM.

Regarding `Cc1ccccc1-c1cc(C(=O)NO)n(-c2cccc(F)c2C)n1` [Example 10, N-hydroxy-1-(3-fluoro-2-methyl-phenyl)-3-(2-methyl-phenyl)-1H-pyrazole-5-carboxamide], the values for the IC50 in test [1] and in test [2] were 0.75 µM and 5.68 µM, respectively.

Regarding `O=C(NO)c1cc(C2=CCCC2)nn1-c1ccccc1` [Example 6, N-Hydroxy-3-(cyclopenten-1-yl)-1-phenyl-1H-pyrazole-5-carboxamide], the IC50 in test [1] is 2.7 µM; in test [2], 20.3 µM.

`O=C(NO)c1cc(OCc2ccccc2)nn1-c1ccccc1` [Example 13, N-Hydroxy-3-benzyloxy-1-phenyl-1H-pyrazole-5-carboxamide]: the IC50 was 27.5 µM in test [1] and greater than 50 µM in test [2].

Regarding `O=C(NO)c1cc(-c2ccccc2Cl)nn1-c1ccccc1` [Example 5, N-Hydroxy-3-(2-chlorophenyl)-1-phenyl-1H-pyrazole-5-carboxamide], the values for the half-inhibitory concentration (IC50) in test [1] and in test [2] were 0.38 µM and 2.82 µM, respectively.

Consider `O=C(NO)c1cc(C2CCCC2)nn1-c1ccccc1` [Example 7, N-Hydroxy-3-cyclopentyl-1-phenyl-1H-pyrazole-5-carboxamide], for which the 50% inhibitory concentration (IC50) was 1.8 µM in test [1] and 12.1 µM in test [2].

Source of the values: patent US20160031863A1, “HISTONE DEACETYLASE INHIBITORS AND COMPOSITIONS AND METHODS OF USE THEREOF” (CHDI FOUNDATION, INC., priority 2013, published 2016).
